Assay results from patent publication US20240000680A1, “MONO-HYDROXY OR DI-HYDROXY DERIVATIVES OF POLYUNSATURATED FATTY ACIDS, PRODUCTION METHOD THEREFOR, AND USE THEREOF” (KOLON INDUSTRIES, INC., priority 2019, published 2024).
Values joined by “and” are separate entries in the source; they are usually repeats but may differ in a detail not shown here. Equal values may be shown once.

Assays:
Format in all cases: cell-based
IL-6 [1] = assay: IL-6 expression inhibition in UVB-irradiated human keratinocytes (ELISA), Example 4-2; conditions: 10 ppm; UVB 160 mJ/cm^2; 24 hours
Protocol: (§1) Human keratinocytes were aliquoted in a 48-well plate at a concentration of 4×10^4 cells/well and cultured for 24 hours at 5% CO2 and 37° C., then the medium was removed and starvation state was maintained with DMEM Serum Free media for 24 hours.
(§2) The SPM 1 and SPM 2 were diluted with DMEM (2% FBS) to make 1 ppm, and then diluted sequentially to 0.1, 0.01 and 0.001 ppm, and then cultured as above and treated with human keratinocytes from which the medium was removed for 1 hour. Then, for TNF-α or IL-6 expression, the medium was exchanged with 250 μl of DPBS (WelGENE), irradiated with 160 mJ/cm^2 of UVB, and then treated with the SPM 1 and SPM 2 again and cultured for 24 hours. In addition, after collecting the medium, the amount of TNF-α was measured using Human TNF-α DuoSet ELISA (R&D system), and the amount of IL-6 was measured using Human IL-6 DuoSet ELISA (R&D system), respectively. The cells adhering to the bottom were washed with DPBS, dissolved with 1N NaOH, and the amount of protein was measured through BCA analysis to measure the amount of TNF-α or IL-6 synthesized per a given protein. In this connection, the effect of the two reaction products SPM 1 and SPM 2 was identified by using a case in which nothing was treated as a negative control group and a case in which 10 ppm of dexamethasone was treated as a positive control group.

TNF-α [2] = assay: TNF-α expression inhibition in UVB-irradiated human keratinocytes (ELISA), Example 4-2; conditions: 10 ppm; UVB 160 mJ/cm^2; 24 hours
Protocol: as §1, §2

MMP-1 [3] = assay: Collagenase (MMP-1) expression inhibition in UVB-irradiated human dermal fibroblasts (ELISA), Example 4-4; conditions: 6 ppm; UVB 100 mJ/cm^2; 48 hours
Protocol: (§3) MMPs (matrix metalloproteinases) are enzymes with proteolytic activity, and by decomposing proteins constituting the extracellular matrix, they have an important effect on the binding of cells and proteins constituting the extracellular matrix. There are 28 types of MMPs, of which MMP-1 is an enzyme that decomposes collagen. In this example, the expression level of MMP-1 in cells was identified.
After culturing human dermal fibroblasts for 24 hours, the medium was exchanged with DPBS (WelGENE) at a concentration of 250 μl/well, and irradiated with 100 mJ/cm^2 of UVB. Then, the SPM 1 and SPM 2 were treated with DMEM (2% FBS) diluted to a concentration of 0.01, 0,1 and 1 ppm, respectively, and cultured for 48 hours. After collecting the cultured cell medium, the amount of MMP-1 was measured using a human total MMP-1 ELISA kit (R&D systems, DY901). At this connection, the effect of the two reaction products SPM 1 and SPM 2 was identified by using a case in which nothing was treated as a negative control group and a case in which 6 ppm of retinoic acid was treated as a positive control group.

MMP-1 [4] = assay: Collagenase (MMP-1) expression inhibition in UVB-irradiated human dermal fibroblasts, Example 8; conditions: 20 μM; UVB 100 mJ/cm^2; 48 hours
Protocol: as §3
Specifically, after culturing human dermal fibroblasts for 24 hours, the medium was exchanged with DPBS (WelGENE) at a concentration of 250 μl/well, and irradiated with 100 mJ/cm^2 of UVB. Then, the composition 2 was treated with DMEM (2% FBS) diluted to a concentration of 0.1, 1, 2, and 5 ppm, respectively, and cultured for 48 hours. After collecting the cultured cell medium, the amount of MMP-1 was measured using a human total MMP-1 ELISA kit (R&D systems, DY901). At this connection, the effect of composition 2 was identified by using a case in which nothing was treated as a negative control group and a case in which 20 μM of retinoic acid was treated as a positive control group.

filaggrin = assay: Filaggrin gene expression in human keratinocytes (RT-PCR), Example 12; conditions: 50 ppm
Excerpt: (§4) Filaggrin, loricrin, and involucrin are known as core proteins constituting the skin barrier. Among them, filaggrin is a protein produced by decomposition of profilagrin, which constitutes keratohyalin granule (KG) present in granule cells of the epidermis, and plays an important role in the skin barrier by aggregating keratin filaments in keratinocytes. Accordingly, it was attempted to identify the skin barrier strengthening effect by identifying he expression of filaggrin and loricrin by the sample.
(§5) Human keratinocytes were cultured in DMEM medium under the same conditions as in Example 9. In order to identify the gene expression related to skin barrier improvement ability, the cultured cells were treated with the SPMs complex composition of the present invention by concentration and cultured, and then RNA was extracted and RT-PCR was performed. The amplified gene was analyzed using the Gel documentation system and Image J program.

loricrin = assay: Loricrin gene expression in human keratinocytes (RT-PCR), Example 12; conditions: 50 ppm
Excerpt: as §4, §5

procollagen = assay: Procollagen synthesis in human dermal fibroblasts (PIP EIA), Example 7; conditions: for Procollagen synthesis (% of control) Average: 24 hours; for Procollagen synthesis (% of control) Average / amount of procollagen (Table 10, single component vs complex composition): untreated control = 100; for amount of procollagen compared to untreated control group: single components, Table 8 concentrations; for amount of procollagen (Table 10, single component vs complex composition): concentration not given in Table 10; for amount of procollagen compared to positive control group (50 μM of retinyl palmitate): at a concentration of 1 μg/ml or more
Excerpt: Collagen, a major component of the extracellular matrix, is synthesized in the form of a precursor called procollagen. The procollagen is known to be cut and isolated from collagen molecules when a polymerization reaction occurs. By measuring the amount of procollagen, the degree of collagen biosynthesis in the cells may be estimated.
[…] In this connection, the effect of the SPM single component and its complex compositions (compositions 1 to 3) was identified by using a case in which nothing was treated as an untreated control group and a case in which 50 μM of retinyl palmitate was treated as Con(+).

IL-6 [5] = assay: IL-6 expression in UVB-irradiated HaCaT human keratinocytes (ELISA), Example 6; conditions: for IL-6 expression (% of control) Average: UVB +; for IL-6 expression (% of control) Average / expression of IL-6 (Table 7, single component vs complex composition): Con(−) = 100; for reduction of expression of IL-6 compared to Con(−): after UVB irradiation; for expression of IL-6 (Table 7, single component vs complex composition): UVB 20 mJ/cm^2
Protocol: In order to identify the synergistic anti-inflammation relieving effect of the SPMs complex composition, the complex compositions (Complexes 1 to 3) of 17-HDHA, Resolvin D5, and Protectin DX and each SPM single material were treated with HaCaT cells, which are human keratinocytes to identify changes in IL-6 expression.
Specifically, first, human keratinocytes were aliquoted in a 48-well plate at a concentration of 4×10^4 cells/well and cultured at 5% CO2, 37° C. for 24 hours, and then the medium was removed and the starvation state was maintained with DMEM Serum Free media for 24 hours.
The SPMs complex composition was diluted with DMEM (FBS 2%) to make 0.5, 1, 2, and 5 μg/ml, and then cultured as above and treated with human keratinocytes from which the medium was removed for 1 hour. […] In addition, after collecting the medium, the amount of IL-6 was measured using Human IL-6 DuoSet ELISA (R&D system). The cells adhering to the bottom were washed with DPBS, dissolved with 1N NaOH, and the amount of protein was measured through BCA analysis to measure the amount of IL-6 synthesized per a given protein. In this connection, the IL-6 expression inhibitory effect of the SPMs complex composition of the present invention and each single component was identified by using a case in which nothing was treated as Con(−) and a case in which 10 μM of hydrocortisone was treated as Con(+) after UVB irradiation.

TNF-α [6] = assay: TNF-α expression inhibition in UVB-irradiated human keratinocytes, Example 9; conditions: 10 μM; UVB 160 mJ/cm^2; 24 hours
Protocol: Specifically, human keratinocytes were aliquoted in a 48-well plate at a concentration of 4×10^4 cells/well and cultured for 24 hours at 5% CO2 and 37° C., then the medium was removed and starvation state was maintained with DMEM Serum Free media for 24 hours.
The composition 2 was diluted with DMEM (2% FBS) to make 0.5, 1, 2, and 5 μg/ml, and then cultured as above and treated with human keratinocytes from which the medium was removed for 1 hour. Then, for TNF-α expression, the medium was exchanged with 250 μl of DPBS (WelGENE), irradiated with 160 mJ/cm^2 of UVB, and then treated with the SPMs again and cultured for 24 hours. In addition, after collecting the medium, the amount of TNF-α was measured using Human TNF-α DuoSet ELISA (R&D system), respectively. The cells adhering to the bottom were washed with DPBS, dissolved with 1N NaOH, and the amount of protein was measured through BCA analysis to measure the amount of TNF-α synthesized per a given protein. In this connection, the effect of the SPMs complex composition was identified by using a case in which nothing was treated as a negative control group and a case in which 10 μM of hydrocortisone was treated as a positive control group.

## C[C@@H]1C[C@H]2[C@@H]3CCC4=CC(=O)C=C[C@]4(C)[C@@]3(F)[C@@H](O)C[C@]2(C)[C@@]1(O)C(=O)CO [dexamethasone]
IL-6 [1]
  reduction of UVB-increased expression of IL-6: about 88%
TNF-α [2]
  reduction of UVB-increased expression of TNF-α: about 35%

## CC1=C(/C=C/C(C)=C/C=C/C(C)=C/C(=O)O)C(C)(C)CCC1 [retinoic acid]
MMP-1 [3]
  reduction of UVB-increased expression of MMP-1: about 70%
MMP-1 [4]
  reduction of UVB-increased expression of MMP-1: about 70%

## hyaluronic acid
filaggrin
  increase in expression of filaggrin: 52.6%
loricrin
  increase in expression of loricrin: 97.7%

## CC/C=C\CC(O)/C=C/C=C\C/C=C\C/C=C\C/C=C\CCC(=O)O (racemic) [Composition 17S-HDHA, (±) 17-hydroxy (dihydroxy)-4Z, 7Z, 10Z, 13Z, 15E, 19Z-docosahexaenoic acid]
procollagen; 0.01 μg/ml
  Procollagen synthesis (% of control) Average: 212.76 % of control
procollagen; 0.1 μg/ml
  Procollagen synthesis (% of control) Average: 237.76 % of control
procollagen; 1 μg/ml
  Procollagen synthesis (% of control) Average: 235.8 % of control
procollagen; 2 μg/ml
  Procollagen synthesis (% of control) Average: 255.32 % of control
procollagen
  amount of procollagen compared to untreated control group: greater amount of procollagen than the untreated control group
  amount of procollagen (Table 10, single component vs complex composition): 255.32
IL-6 [5]; 0.1 μg/ml
  IL-6 expression (% of control) Average: 89.63 % of control
IL-6 [5]; 1 μg/ml
  IL-6 expression (% of control) Average: 83 % of control
IL-6 [5]; 2 μg/ml
  IL-6 expression (% of control) Average: 89.17 % of control
  reduction of expression of IL-6 compared to Con(−): 10.8%
  expression of IL-6 (Table 7, single component vs complex composition): 89.17
IL-6 [5]; 5 μg/ml
  IL-6 expression (% of control) Average: 81.66 % of control

## CCCCCCCCCCCCCCCC(=O)OC/C=C(C)/C=C/C=C(C)/C=C/C1=C(C)CCCC1(C)C [Con(+) R.P., retinyl palmitate, reference compound]
procollagen; 50 μM
  Procollagen synthesis (% of control) Average: 249.88 % of control and 240.2 % of control

## C[C@]12CCC(=O)C=C1CC[C@@H]1[C@@H]2[C@@H](O)C[C@@]2(C)[C@H]1CC[C@]2(O)C(=O)CO [Con(+) H.C., hydrocortisone, reference compound]
TNF-α [6]
  reduction of UVB-increased expression of TNF-α: about 52%
IL-6 [5]; 10 μM
  IL-6 expression (% of control) Average: 31.23 % of control and 42.82 % of control

## CC/C=C\C[C@H](O)/C=C/C=C\C=C\[C@@H](O)C/C=C\C/C=C\CCC(=O)O [PDX, 10S, 17S-dihydroxy-4Z,7Z,11E,13Z,15E,19Z-docosahexaenoic acid]
procollagen; 0.01 μg/ml
  Procollagen synthesis (% of control) Average: 237.15 % of control
procollagen; 0.1 μg/ml
  Procollagen synthesis (% of control) Average: 244.1 % of control
procollagen; 1 μg/ml
  Procollagen synthesis (% of control) Average: 251.41 % of control
procollagen; 2 μg/ml
  Procollagen synthesis (% of control) Average: 254.1 % of control
procollagen
  amount of procollagen compared to positive control group (50 μM of retinyl palmitate): greater amount of procollagen was identified compared to the positive control group
  amount of procollagen compared to untreated control group: greater amount of procollagen than the untreated control group
  amount of procollagen (Table 10, single component vs complex composition): 254.1
IL-6 [5]; 0.1 μg/ml
  IL-6 expression (% of control) Average: 95.36 % of control
IL-6 [5]; 1 μg/ml
  IL-6 expression (% of control) Average: 102.69 % of control
IL-6 [5]; 2 μg/ml
  IL-6 expression (% of control) Average: 88.13 % of control
  reduction of expression of IL-6 compared to Con(−): 11.8%
  expression of IL-6 (Table 7, single component vs complex composition): 88.13
IL-6 [5]; 5 μg/ml
  IL-6 expression (% of control) Average: 86.72 % of control

## CC/C=C\C[C@H](O)/C=C/C=C\C/C=C\C=C\[C@@H](O)C/C=C\CCC(=O)O [RvD5, 7S, 17S-dihydroxy-4Z, 8E, 10Z, 13Z, 15E, 19Z-docosahexaenoic acid]
procollagen; 0.01 μg/ml
  Procollagen synthesis (% of control) Average: 245.68 % of control
procollagen; 0.1 μg/ml
  Procollagen synthesis (% of control) Average: 248 % of control
procollagen; 1 μg/ml
  Procollagen synthesis (% of control) Average: 249.34 % of control
procollagen; 2 μg/ml
  Procollagen synthesis (% of control) Average: 255.32 % of control
procollagen
  amount of procollagen compared to positive control group (50 μM of retinyl palmitate): greater amount of procollagen was identified compared to the positive control group
  amount of procollagen compared to untreated control group: greater amount of procollagen than the untreated control group
  amount of procollagen (Table 10, single component vs complex composition): 255.32
IL-6 [5]; 0.1 μg/ml
  IL-6 expression (% of control) Average: 99.58 % of control
IL-6 [5]; 1 μg/ml
  IL-6 expression (% of control) Average: 109.86 % of control
IL-6 [5]; 2 μg/ml
  IL-6 expression (% of control) Average: 99.49 % of control
  reduction of expression of IL-6 compared to Con(−): 0.5%
  expression of IL-6 (Table 7, single component vs complex composition): 99.49
IL-6 [5]; 5 μg/ml
  IL-6 expression (% of control) Average: 83.38 % of control
